Assay [1] has as its system GBM0308 CSCs. The assay can be described thus: Dose-response killing of GBM CSCs (PI/Hoechst, Celigo cytometer). To be noted: for Emax / CSCs Max. observed efficacy (% dead cells): 72 h; for Emax: read-out: CSC Max. observed efficacy (% dead cells), Table 7; for CSCs Max. observed efficacy (% dead cells): up to 10 μM. In kind it is cell-based. An excerpt: (§1) The inventors first evaluated a cohort of seven rocaglate translation inhibitors (1, 3-7, and 9, FIG. 1A and Table 1, compounds 2 and 8 were not tested due to unavailability). To assay for compounds that selectively affect GBM CSCs, the inventors employed the patient-derived tumor-initiating cell (TIC) cell line […] that forms neurospheres (consisting exclusively of tumor-initiating cells or CSCs) when cultured in neurobasal (NBE) medium. Upon exposure to serum and growth factor withdrawal, however, the cell line differentiates, acquires a flattened morphology, and forms a non-CSC population.^20 Thus, compounds can be tested in parallel to assess their effect on GBM CSCs vs. GBM non-CSCs as separate populations with a clean and robust response. This approach has been previously used to perform RNAi-based genetic screens to identify modulators of CSCs.^20 In this study, GBM0308 cells, cultured in stem cell conditions to form CSCs or in medium containing serum to induce differentiation into a non-CSC population, were treated in parallel with compounds at varying doses. Three days post-treatment, propidium iodide (PI) and Hoechst staining were performed and quantified using a Celigo image cytometer. Hoechst dye stained all […] nucleated cells, while PI exclusively stained dead cells. Cell viability and the percentage of cell death were then determined.
(§2) Cell Culture: Glioblastoma stem cell lines GBM0308, BT145, and BT112 were cultured in neurobasal (NBE medium) containing N-2 and B-27 supplements, EGF, bFGF, L-glutamine, and Penicillin-Streptomycin), as described previously.^19 Adherent GBM cells were cultured in serum-containing DMEM media (Invitrogen) supplemented with 10% fetal bovine serum (Corning Cellgro™). Cells were incubated at 37° C. and 5% CO2 to allow neurosphere formation. For seeding and subculturing, the neurospheres were gently trypsinized with 0.025% trypsin to form a single-cell suspension.
(§3) Dose-Response Testing in GBM Cells: Briefly, on day 1, cells were seeded in triplicate. For CSCs, 1500 cells/well were plated in a low attachment 96-well plate with NBE media and incubated for 3 days at 37° C. and 5% CO2 to allow the formation of neurospheres. For non-CSCs, 3000 cells/well were plated in a 96-well plate with DMEM media supplemented with 10% FBS. Similarly, the assay plates were also incubated for the same duration. Compound treatments started on day 4. Each compound was resuspended in DMSO and then diluted to different concentrations in media to a final concentration of DMSO less than 1%. The compounds were added at concentrations of 10, 3.3, 1.11, 0.37, 0.12, 0.041, 0.013, and 0.004 µM, respectively. DMSO-treated cells served as a control. After 72 h incubation with the compounds, fluorescent stains, propidium iodide, and Hoechst 33342 (Life Technologies, Carlsbad, CA), were used to stain the GBM cells to determine cell viability. A staining solution in 1×PBS was prepared by mixing PI and Hoechst 33342 to working concentrations of 2.5 μM and 20 μM, respectively. 20 μL of this staining solution was added per well, and plates were incubated at 37° C. and 5% CO2 for 60 min. After incubation, plates were read by Celigo imaging cytometer using an inbuilt Celigo application; Cell Viability (Dead+Total). For the viability measurement, the total number of neurospheres/cells and dead neurospheres/cells in each well were counted by the cytometer. The percentage of PI+ cells was normalized to DMSO and plotted against the drug concentration to calculate the EC50 with a four-parameter, variable-slope dose-response curve with an upper constraint of <100% dead cells and a lower constraint of =0% dead cells (GraphPad Prism v.10.0.0). For all dose response experiments, the experimental maximal efficacy (maximum observed % cell death) is reported. Relative EC50 values are reported for all compounds killing >50% of cells.

For assay [2], the system named is GBM0308 non-CSCs. The assay can be described thus: Dose-response killing of GBM non-CSCs (PI/Hoechst, Celigo cytometer). In kind it is cell-based. To be noted: for Emax / EC50: Homo sapiens; for Emax / Non-CSCs Max. observed efficacy (% dead cells): 72 h; for Emax: read-out: Non-CSC Max. observed efficacy (% dead cells), Table 7, cell line not given; for EC50: read-out: Non-CSC EC50 (μM); for Non-CSCs Max. observed efficacy (% dead cells): Table 1, GBM0308 non-CSCs, up to 10 μM.
Text: as §1, §2, §3

Assay [3] concerns eIF4A paralogs (eIF4A1). Nature of the assay: PISA assay in GBM0308 cell lysates, eIF4A. The assay is classed as binding, human. To be noted: GBM0308 lysate, compound 10 μM, AMP-PNP and (AG)8 RNA added. An excerpt: (§4) Derivatization-free target identification using a modified proteome integral solubility alteration (PISA) assay. The inventors next pursued proteome-wide target identification to better understand the target profiles of CSC-selective rocaglates. To enable cross-compound comparisons of target engagement, the inventors opted to use the Proteome Integral Solubility Alteration (PISA) assay,^29 a derivative of the mass spectrometry-based Cellular Thermal Shift Assay (MS-CETSA). In MS-CETSA,^30,31 target engagement is inferred through proteome-wide analysis of compound-induced changes to protein thermal stability; proteins with a shift in their half-maximal thermal denaturation temperature upon compound treatment are flagged as potential targets. The PISA assay obviates the need for MS-CETSA-derived thermal denaturation curves through curve integration by pooling of individual temperature points into a single “integral” sample for each treatment condition, thereby increasing throughput (FIG. 9). In contrast to MS-CETSA (which relies on curve comparisons), PISA determinations are performed by simply comparing soluble protein abundance levels between compound- and DMSO-treated samples. Importantly, protein fold-change measurements in PISA experiments generally scale with the thermal shift derived from CETSA experiments, and the magnitude of a thermal shift can inform on relative affinity between compounds and individual targets.^30,32-25 Maximal stability changes are protein-specific,^36 however, precluding estimations of preference for one target over another. Thus, PISA allows for simultaneous target profiling and comparisons of binding affinity between different compounds within a given target.
(§5) Of note, we also detected stabilization of DDX3Y, a paralog which shares >90% sequence similarity with DDX3X.
PISA assay in GBM0308 cell lysates: The PISA assay was performed in lysates as described by Gaetani and coworkers^S2 with slight modification. Pelleted GBM0308 cells were resuspended in ice-cold lysis buffer (1×PBS pH 7.4, 2 mM MgCl2, 0.5 mM AMP-PNP, 1 μM (AG)8 RNA, HALT protease inhibitor cocktail EDTA-free) and subjected to three freeze-thaw cycles with liquid nitrogen to extract lysate proteins. Thawing was performed at room temperature until ˜80% thawed, then completed on ice. Lysate was clarified by centrifugation for 10 minutes at 20,000 RCF and 4° C., transferred to a fresh Eppendorf tube, then centrifuged again for 10 minutes at 20,000 RCF and 4° C. to ensure removal of debris. Lysate concentration was determined using a Pierce BCA Protein Assay Kit and adjusted to 2.0 mg/mL in lysis buffer. Lysate was mixed 1:1 with a 2× solution of test compound or DMSO in lysis buffer, gently aspirated to ensure proper mixing, and incubated at room temperature for 10 minutes. […]

Assay [4] deals with T1, DDX3X (Homo sapiens, UniProt O00571).
T1 construct: endogenous in cells; host or cells: GBM0308 glioblastoma stem cells (lysate)
Nature of the assay: PISA assay in GBM0308 cell lysates, DDX3X. To be noted: GBM0308 lysate, compound 10 μM, AMP-PNP and (AG)8 RNA added. The assay is classed as binding.
Text: as §4, §5
PISA assay in GBM0308 cell lysates: The PISA assay was performed in lysates as described by Gaetani and coworkers^S2 with slight modification. […] Lysate concentration was determined using a Pierce BCA Protein Assay Kit and adjusted to 2.0 mg/mL in lysis buffer. […]

[5] abbreviates: Homo sapiens, cell line not given.
[6] abbreviates: Homo sapiens, read-out: CSC EC50 (μM), Table 7, cell line not given.
The mark [7] stands for this setting: Table 1, GBM0308 CSCs, 72 h treatment, relative EC50, given for compounds causing at least 50% cell death, read-out: CSCs EC50.

Read-outs that look alike come from different tables or passages of the source.

T1 sequence (O00571 whole entry): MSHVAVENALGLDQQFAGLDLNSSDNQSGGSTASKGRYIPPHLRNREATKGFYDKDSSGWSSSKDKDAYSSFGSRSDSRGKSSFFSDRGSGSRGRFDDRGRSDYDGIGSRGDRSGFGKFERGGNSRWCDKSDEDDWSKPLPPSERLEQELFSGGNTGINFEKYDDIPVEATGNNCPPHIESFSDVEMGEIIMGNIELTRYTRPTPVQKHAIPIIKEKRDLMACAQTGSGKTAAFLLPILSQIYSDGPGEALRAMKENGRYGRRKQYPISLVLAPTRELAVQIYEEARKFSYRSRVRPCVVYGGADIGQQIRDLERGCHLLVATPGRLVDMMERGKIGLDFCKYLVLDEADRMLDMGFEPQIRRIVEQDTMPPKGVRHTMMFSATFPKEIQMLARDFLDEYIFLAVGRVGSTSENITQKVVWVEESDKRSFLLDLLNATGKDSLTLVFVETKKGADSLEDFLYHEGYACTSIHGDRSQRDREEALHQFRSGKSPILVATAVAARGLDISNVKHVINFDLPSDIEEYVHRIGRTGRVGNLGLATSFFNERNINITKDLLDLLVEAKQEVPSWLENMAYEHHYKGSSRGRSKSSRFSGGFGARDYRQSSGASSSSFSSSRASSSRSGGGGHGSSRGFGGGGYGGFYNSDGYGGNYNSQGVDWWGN

Consider `COc1cc(OC)c2c(c1)O[C@@]1(c3ccc(Cl)cc3)[C@H](c3ccccc3)[C@@H](C(=O)NS(=O)(=O)N(C)C)[C@@H](O)[C@@]21O` [ZW-12-31, (1R,2R,3S,3aR,8bS)-3a-(4-chlorophenyl)-N—(N,N-dimethylsulfamoyl)-1,8b-dihydroxy-6,8-dimethoxy-3-phenyl-2,3,3a,8b-tetrahydro-1H-cyclopenta[b]benzofuran-2-carboxamide], for which the Emax in assay [1] (setting [5]) was 72%; in assay [2], 25%. For the same molecule, in assay [1] (setting [6]), the EC50 was 0.693 µM.

`COc1cc(OC)c2c(c1)O[C@@]1(c3ccc(Br)cc3)[C@H](c3ccccc3)[C@@H](C(=O)NS(=O)(=O)N(C)C(C)C)[C@@H](O)[C@@]21O` [ZW-12-34, (1R,2R,3S,3aR,8bS)-3a-(4-bromophenyl)-1,8b-dihydroxy-N—(N-isopropyl-N-methylsulfamoyl)-6,8-dimethoxy-3-phenyl-2,3,3a,8b-tetrahydro-1H-cyclopenta[b]benzofuran-2-carboxamide]: the Emax in assay [1] (setting [5]) was 79%; in assay [2], 18%. Further, the EC50 in assay [1] (setting [6]) was determined as 1.85 µM.

With `CCN(CC)S(=O)(=O)NC(=O)[C@H]1[C@@H](O)[C@@]2(O)c3c(OC)cc(OC)cc3O[C@@]2(c2ccc(Br)cc2)[C@@H]1c1ccccc1` [ZW-12-35, (1R,2R,3S,3aR,8bS)-3a-(4-bromophenyl)-N—(N,N-diethylsulfamoyl)-1,8b-dihydroxy-6,8-dimethoxy-3-phenyl-2,3,3a,8b-tetrahydro-1H-cyclopenta[b]benzofuran-2-carboxamide], the Emax in assay [1] (setting [5]) turned out to be 92%; in assay [2] it was 16%. The concentration giving a half-maximal response (EC50) in assay [1] (setting [6]) was 1.18 µM.

As for `COc1cc(OC)c2c(c1)O[C@@]1(c3ccc(Br)cc3)[C@H](c3ccccc3)[C@@H](C(=O)NS(=O)(=O)N3CC(C)C3)[C@@H](O)[C@@]21O` [ZW-12-36, (1R,2R,3S,3aR,8bS)-3a-(4-bromophenyl)-1,8b-dihydroxy-6,8-dimethoxy-N-((3-methylazetidin-1-yl)sulfonyl)-3-phenyl-2,3,3a,8b-tetrahydro-1H-cyclopenta[b]benzofuran-2-carboxamide], the Emax stood at 96% in assay [1] (setting [5]) and 11% in assay [2]. The EC50 in assay [1] (setting [6]) amounted to 0.804 µM.

Take `COc1cc(OC)c2c(c1)O[C@@]1(c3ccc(Br)cc3)[C@H](c3ccccc3)[C@@H](C(=O)NS(=O)(=O)N3CCCC3)[C@@H](O)[C@@]21O` [ZW-12-37, (1R,2R,3S,3aR,8bS)-3a-(4-bromophenyl)-1,8b-dihydroxy-6,8-dimethoxy-3-phenyl-N-(pyrrolidin-1-ylsulfonyl)-2,3,3a,8b-tetrahydro-1H-cyclopenta[b]benzofuran-2-carboxamide]: the Emax in assay [1] (setting [5]) worked out at 95%; in assay [2] it was 25%. The EC50 was 0.7 µM in assay [1] (setting [6]) and 0.401 µM in assay [2].

As for `COc1cc(OC)c2c(c1)O[C@@]1(c3ccc(Br)cc3)[C@H](c3ccccc3)[C@@H](C(=O)NS(=O)(=O)N3CCOCC3)[C@@H](O)[C@@]21O` [ZW-12-38, (1R,2R,3S,3aR,8bS)-3a-(4-bromophenyl)-1,8b-dihydroxy-6,8-dimethoxy-N-(morpholinosulfonyl)-3-phenyl-2,3,3a,8b-tetrahydro-1H-cyclopenta[b]benzofuran-2-carboxamide], the results for the Emax in assay [1] (setting [5]) and in assay [2] were 95% and 19%, respectively. The EC50 in assay [1] (setting [6]) worked out at 0.7 µM; in assay [2] it was 0.463 µM.

For aglaroxin C [rac-4, reference compound], the “CSCs Max. observed efficacy (% dead cells)” value in assay [1] (Table 1, GBM0308 CSCs) is recorded as 42%; in assay [1] (Table 1, GBM0308 CSCs, listed as 4), at most 50%. Further, the “Non-CSCs Max. observed efficacy (% dead cells)” value in assay [2] is recorded as 26%.

For “methyl rocaglate [(−)-3, reference compound]”, in assay [1] (Table 1, GBM0308 CSCs), the “CSCs Max. observed efficacy (% dead cells)” value turned out to be 75%. Further, the EC50 in assay [1] (setting [7]) was 1.64 µM. The “Non-CSCs Max. observed efficacy (% dead cells)” value in assay [2] was 23%.

On to “rocaglamide A [(−)-1, reference compound]”, for which the “CSCs Max. observed efficacy (% dead cells)” value in assay [1] (Table 1, GBM0308 CSCs) is on record as 84%. For the same molecule, the EC50 in assay [1] (setting [7]) was 0.387 µM. Besides, the “Non-CSCs Max. observed efficacy (% dead cells)” value in assay [2] was found to be 31%. Moreover, the “thermal stabilization of eIF4A paralogs (PISA), in words” value in assay [3] was “thermal stabilization”. Moreover, the “thermal stabilization of DDX3X (PISA), in words” value in assay [4] was “thermal stabilization”.

The values above are taken from patent publication US12612395B2, “Rocaglate derivatives and uses thereof” (TRUSTEES OF BOSTON UNIVERSITY, priority 2023, dated 2026).
